One test concerns the target T1, human DP2 receptor (Homo sapiens, UniProt Q9Y5Y4).
T1 construct: expressed in transfected cells
T1 sequence (Q9Y5Y4 1-395): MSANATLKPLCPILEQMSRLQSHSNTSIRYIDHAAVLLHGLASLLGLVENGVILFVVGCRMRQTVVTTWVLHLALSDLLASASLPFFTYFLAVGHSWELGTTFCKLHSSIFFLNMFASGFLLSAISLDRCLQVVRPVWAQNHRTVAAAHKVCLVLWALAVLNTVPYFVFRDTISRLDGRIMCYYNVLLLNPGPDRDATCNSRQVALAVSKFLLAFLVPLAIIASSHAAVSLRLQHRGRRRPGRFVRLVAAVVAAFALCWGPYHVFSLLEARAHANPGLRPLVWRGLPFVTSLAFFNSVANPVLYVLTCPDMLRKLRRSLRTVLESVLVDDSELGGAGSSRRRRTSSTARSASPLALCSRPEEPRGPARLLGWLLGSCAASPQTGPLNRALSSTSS
Description: DP2/CRTH2 radioligand binding assay using [3H]PGD2. The note with it: hDP2 (CRTH2) binding assay. Put shortly:
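HEK293 membranes with stable recombinant human DP2, incubated with 1 nM [3H]PGD2 and compound 60 min at room temperature in pH 7.4 HEPES/MnCl2/EDTA buffer, with or without 0.2% human serum albumin.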

Test [1] deals with T2, recombinant human CRTH2 receptor (Homo sapiens, UniProt Q9Y5Y4).
T2 construct: expressed in transfected cells
T2 sequence (Q9Y5Y4 1-395): T1 sequence (Q9Y5Y4 1-395)
Kind of test: GTPγS binding assay. The conditions noted are these: +HSA; read-out: hDP2 GTPγS μM (+HSA). It is filed as biochemical. The procedure: The ability of a compound to inhibit binding of GTP to DP2 is assessed via a membrane GTPγS assay. CHO cells stably expressing the recombinant human CRTH2 receptor are resuspended in 10 mM Hepes, 7.4 containing 1 mM DTT, lysed and centrifuged at 75,000×g to pellet the membranes. The membranes are resuspended in 10 mM Hepes, 7.4 containing 1 mM DTT and 10% glycerol. Membranes (˜12.5 μg per well) are incubated in 96-well plates with 0.05 nM [^35S]-GTPγS, 80 nM PGD2, 5 μM GDP, and test compound in Assay Buffer (50 mM Hepes, pH 7.4, 100 mM NaCl, 5 mM MgCl2 and 0.2% human serum albumin) for 60 minutes at 30° C. The reactions are terminated by rapid filtration through Whatman GF/B glass fibre filter plates. The filter plates are washed 3 times with 1 ml cold Assay Buffer and dried. Scintillant is then added to the plates and the radioactivity retained on the filters is determined on a Packard TopCount (Perkin Elmer). Specific binding is determined as total radioactive binding minus non-specific binding in the absence of the ligand (80 nM PGD2). IC50s were determined using Graphpad prism analysis of drug titration curves.
(Binding of GTPγS marks nucleotide exchange on a G protein.)

A further test addresses T3, human DP1 receptor (Homo sapiens, UniProt Q13258).
T3 construct: tissue Biological Specialty Corporation; host or cells: human platelets, membranes
T3 sequence (Q13258 1-359): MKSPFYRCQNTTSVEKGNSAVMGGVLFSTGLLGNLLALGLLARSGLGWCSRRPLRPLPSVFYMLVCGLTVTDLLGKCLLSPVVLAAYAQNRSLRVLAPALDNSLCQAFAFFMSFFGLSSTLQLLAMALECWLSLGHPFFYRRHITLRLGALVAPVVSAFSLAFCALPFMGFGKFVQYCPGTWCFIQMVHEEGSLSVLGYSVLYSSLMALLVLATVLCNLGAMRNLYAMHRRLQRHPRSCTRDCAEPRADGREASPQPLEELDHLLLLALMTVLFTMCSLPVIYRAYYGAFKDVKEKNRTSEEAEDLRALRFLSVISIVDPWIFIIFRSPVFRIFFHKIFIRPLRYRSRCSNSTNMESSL
Description: DP1 radioligand binding assay using [3H]BWA868C. The note with it: hDP1 binding. Put shortly:
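Human platelet membranes (20 μg protein/well) incubated 60 min at room temperature with 2 nM [3H]BWA868C in 50 mM Hepes, 10 mM MnCl2, 1 mM EDTA, ±0.2% human serum albumin, pH 7.4. Bound label measured after filtration; nonspecific binding defined with 10 μM BW A868C. IC50 from titration curves.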

Results on 18 compounds are retold here after US8242145B2, “Cyclic diaryl ether compounds as antagonists of prostaglandin D2 receptors” (Panmira Pharmaceuticals, LLC, priority 2008, dated 2012).

Turning to `C[C@H]1[C@@H](c2ccccc2)OC(=O)N1Cc1cc(Br)ccc1Oc1cc(Cl)cc(CC(=O)O)c1` [Compound 1-27, {3-[4-Bromo-2-((4S,5R)-4-methyl-2-oxo-5-phenyl-oxazolidin-3-ylmethyl)-phenoxy]-5-chloro-phenyl}-acetic acid], the IC50 at human DP2 receptor is less than 300 nM; in test [1], less than 0.3 µM; on human DP1 receptor, less than 300 nM.
Regarding `C[C@H]1[C@@H](c2ccccc2)OC(=O)N1Cc1cc(Br)ccc1Oc1cc(CC(=O)O)cc(C(F)(F)F)c1` [Compound 1-28, {3-[4-Bromo-2-((4S,5R)-4-methyl-2-oxo-5-phenyl-oxazolidin-3-ylmethyl)-phenoxy]-5-trifluoromethyl-phenyl}-acetic acid], the IC50 is less than 300 nM on human DP2 receptor, less than 0.3 µM in test [1] and more than 1000 nM at human DP1 receptor.
For `C[C@H]1[C@@H](c2ccccc2)OC(=O)N1Cc1cc(Br)ccc1Oc1cc(CC(=O)O)ccc1Cl` [Compound 1-29, {3-[4-Bromo-2-((4S,5R)-4-methyl-2-oxo-5-phenyl-oxazolidin-3-ylmethyl)-phenoxy]-4-chloro-phenyl}-acetic acid], the IC50 at human DP2 receptor was less than 300 nM; in test [1], more than 1 µM; on human DP1 receptor, more than 1000 nM.
With `COc1ccc(CC(=O)O)cc1Oc1ccc(Br)cc1CN1C(=O)O[C@H](c2ccccc2)[C@@H]1C` [Compound 1-30, {3-[4-Bromo-2-((4S,5R)-4-methyl-2-oxo-5-phenyl-oxazolidin-3-ylmethyl)-phenoxy]-4-methoxy-phenyl}-acetic acid], the IC50 on human DP2 receptor is less than 300 nM; in test [1], 0.3 to 1 µM; on human DP1 receptor, more than 1000 nM.
Taken in the same sequence, the figures for `COc1ccc(CC(=O)O)cc1Oc1ccc(Cl)cc1CN1C(=O)O[C@H](c2ccccc2)[C@@H]1C` [Compound 1-31, {3-[4-Chloro-2-((4S,5R)-4-methyl-2-oxo-5-phenyl-oxazolidin-3-ylmethyl)-phenoxy]-4-methoxy-phenyl}-acetic acid] were less than 300 nM, less than 0.3 µM and more than 1000 nM.
Take `COc1ccc(CC(=O)O)cc1Oc1ccc(C(F)(F)F)cc1CN1C(=O)O[C@H](c2ccccc2)[C@@H]1C` [Compound 1-32, {4-Methoxy-3-[2-((4S,5R)-4-methyl-2-oxo-5-phenyl-oxazolidin-3-ylmethyl)-4-trifluoromethyl-phenoxy]-phenyl}-acetic acid]: the IC50 on human DP2 receptor is less than 300 nM; in test [1] it was less than 0.3 µM; on human DP1 receptor it was more than 1000 nM.
As for `C[C@H]1[C@@H](c2ccccc2)OC(=O)N1Cc1cc(C(F)(F)F)ccc1Oc1cc(CC(=O)O)ccc1OCc1ccccc1` [Compound 1-33, {4-Benzyloxy-3-[2-((4S,5R)-4-methyl-2-oxo-5-phenyl-oxazolidin-3-ylmethyl)-4-trifluoromethyl-phenoxy]-phenyl}-acetic acid], the results for the IC50 (on human DP2 receptor; in test [1]; on human DP1 receptor) were less than 300 nM, less than 0.3 µM and more than 1000 nM, respectively.
`COc1ccc(CC(=O)O)cc1Oc1ccc(S(C)(=O)=O)cc1CN1C(=O)O[C@H](c2ccccc2)[C@@H]1C` [Compound 1-34, {3-[4-Methanesulfonyl-2-((4S,5R)-4-methyl-2-oxo-5-phenyl-oxazolidin-3-ylmethyl)-phenoxy]-4-methoxy-phenyl}-acetic acid]: the IC50 on human DP2 receptor was 300 to 1000 nM; in test [1], more than 1 µM; on human DP1 receptor, more than 1000 nM.
`COc1ccc(CC(=O)O)cc1Oc1ccc(-c2ccccc2)cc1CN1C(=O)O[C@H](c2ccccc2)[C@@H]1C` [Compound 1-35, {4-Methoxy-3-[3-((4S,5R)-4-methyl-2-oxo-5-phenyl-oxazolidin-3-ylmethyl)-biphenyl-4-yloxy]-phenyl}-acetic acid]: the IC50 is less than 300 nM on human DP2 receptor, more than 1 µM in test [1] and more than 1000 nM at human DP1 receptor.
As to `COc1ccc(CC(=O)O)cc1Oc1ccc(-c2ccc(F)cc2)cc1CN1C(=O)O[C@H](c2ccccc2)[C@@H]1C` [Compound 1-36, {3-[4′-Fluoro-3-((4S,5R)-4-methyl-2-oxo-5-phenyl-oxazolidin-3-ylmethyl)-biphenyl-4-yloxy]-4-methoxy-phenyl}-acetic acid], the IC50 on human DP2 receptor was less than 300 nM; in test [1], more than 1 µM; on human DP1 receptor it was more than 1000 nM.
Taken in the same sequence, the figures for `COc1ccc(CC(=O)O)cc1Oc1ccc(-c2ccccc2OC)cc1CN1C(=O)O[C@H](c2ccccc2)[C@@H]1C` [Compound 1-37, {4-Methoxy-3-[2′-methoxy-3-((4S,5R)-4-methyl-2-oxo-5-phenyl-oxazolidin-3-ylmethyl)-biphenyl-4-yloxy]-phenyl}-acetic acid] were less than 300 nM, less than 0.3 µM and more than 1000 nM.
For `COc1cccc(-c2ccc(Oc3cc(CC(=O)O)ccc3OC)c(CN3C(=O)O[C@H](c4ccccc4)[C@@H]3C)c2)c1` [Compound 1-38, {4-Methoxy-3-[3′-methoxy-3-((4S,5R)-4-methyl-2-oxo-5-phenyl-oxazolidin-3-ylmethyl)-biphenyl-4-yloxy]-phenyl}-acetic acid], the IC50 at human DP2 receptor is less than 300 nM; in test [1], 0.3 to 1 µM; on human DP1 receptor it was more than 1000 nM.
Taken in the same sequence, the figures for `COc1ccc(-c2ccc(Oc3cc(CC(=O)O)ccc3OC)c(CN3C(=O)O[C@H](c4ccccc4)[C@@H]3C)c2)cc1` [Compound 1-39, {4-Methoxy-3-[4′-methoxy-3-((4S,5R)-4-methyl-2-oxo-5-phenyl-oxazolidin-3-ylmethyl)-biphenyl-4-yloxy]-phenyl}-acetic acid] were less than 300 nM, more than 1 µM and more than 1000 nM.
On to `COc1ccc(CC(=O)O)cc1Oc1ccc(-c2cccnc2)cc1CN1C(=O)O[C@H](c2ccccc2)[C@@H]1C` [Compound 1-40, {4-Methoxy-3-[2-((4S,5R)-4-methyl-2-oxo-5-phenyl-oxazolidin-3-ylmethyl)-4-pyridin-3-yl-phenoxy]-phenyl}-acetic acid], for which the IC50 on human DP2 receptor is less than 300 nM; in test [1], less than 0.3 µM; on human DP1 receptor it was more than 1000 nM.
In the case of `COc1ccc(CC(=O)O)cc1Oc1ccc(-c2ccncc2)cc1CN1C(=O)O[C@H](c2ccccc2)[C@@H]1C` [Compound 1-41, {4-Methoxy-3-[2-((4S,5R)-4-methyl-2-oxo-5-phenyl-oxazolidin-3-ylmethyl)-4-pyridin-4-yl-phenoxy]-phenyl}-acetic acid], the results for the IC50 (on human DP2 receptor; in test [1]; at human DP1 receptor) were less than 300 nM, 0.3 to 1 µM and more than 1000 nM, respectively.
Taken in the same sequence, the figures for `COc1ccc(CC(=O)O)cc1Oc1ccc(-c2cn[nH]c2)cc1CN1C(=O)O[C@H](c2ccccc2)[C@@H]1C` [Compound 1-42, {4-Methoxy-3-[2-((4S,5R)-4-methyl-2-oxo-5-phenyl-oxazolidin-3-ylmethyl)-4-(1H-pyrazol-4-yl)-phenoxy]-phenyl}-acetic acid] were less than 300 nM, less than 0.3 µM and more than 1000 nM.
Consider `COc1ccc(CC(=O)O)cc1Oc1ccc(-c2cnn(C)c2)cc1CN1C(=O)O[C@H](c2ccccc2)[C@@H]1C` [Compound 1-43, {4-Methoxy-3-[2-((4S,5R)-4-methyl-2-oxo-5-phenyl-oxazolidin-3-ylmethyl)-4-(1-methyl-1H-pyrazol-4-yl)-phenoxy]-phenyl}-acetic acid], for which the figures for the IC50 (on human DP2 receptor; in test [1]; at human DP1 receptor) were less than 300 nM, 0.3 to 1 µM and more than 1000 nM, respectively.
Taken in the same sequence, the figures for `COc1ccc(C(C)C(=O)O)cc1Oc1ccc(C(F)(F)F)cc1CN1C(=O)O[C@H](c2ccccc2)[C@@H]1C` (stereo partly drawn) [Compound 1-44, 2-{4-Methoxy-3-[2-((4S,5R)-4-methyl-2-oxo-5-phenyl-oxazolidin-3-ylmethyl)-4-trifluoromethyl-phenoxy]-phenyl}-propionic acid] were less than 300 nM, 0.3 to 1 µM and more than 1000 nM.
